Key:
Test in all cases: Test B pre-/postemergence
Format in all cases: in vivo
Set-up in all cases: key: 0 is no effect; 10 is complete control
[1] = system: blackgrass (Alopecurus myosuroides)
Method in brief: (§1)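 Compounds in a surfactant-containing, non-phytotoxic solvent blend are applied to freshly planted seed (preemergence) and, concurrently, to seedlings of 2 to 18 cm at 1–4 leaves (postemergence). Plants stay in the greenhouse twelve to sixteen days and are then scored visually from 0 (no effect) to 10 (complete control).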

[2] = system: broadleaf signalgrass (Brachiaria decumbens)
Method in brief: as §1

[3] = system: cocklebur (Xanthium strumarium)
Method in brief: as §1

[4] = system: corn (Zea mays)
Method in brief: as §1

[5] = system: crabgrass (Digitaria sanguinalis)
Method in brief: as §1

[6] = system: giant foxtail (Setaria faberii)
Method in brief: as §1

[7] = system: momingglory (Ipomoea hederacea)
Method in brief: as §1

[8] = system: pigweed (Amaranthus retroflexus)
Method in brief: as §1

[9] = system: purple nutsedge (Cyperus rotundus)
Method in brief: as §1

[10] = system: soybean (Glycine max)
Method in brief: as §1

[11] = system: sugar beet (Beta vulgaris)
Method in brief: as §1

[12] = system: velvetleaf (Abutilon theophrasti)
Method in brief: as §1

[13] = system: wheat (Triticum aestivum)
Method in brief: as §1

[14] = system: wild oat (Avena fatua)
Method in brief: as §1

[15] = Preemergence, Rate 62 g/ha, scale of 0 to 10

Cc1cnc(-c2ccc(C(F)(F)F)cc2)nc1Cn1ccc(C#N)n1 [Compound 53]
4: Plant response rating, Crabgrass ([5]; Rate 125 g/ha, Preemergence) | Plant response rating, Crabgrass ([5]; Rate 250 g/ha, Postemergence) | Plant response rating, Crabgrass ([5]; Rate 500 g/ha, Postemergence) | Plant response rating, Sugarbeets [11, 15] | Plant response rating, Velvetleaf ([12]; Rate 250 g/ha, Preemergence)
9: Sugarbeets plant response rating ([11]; Rate 62 g/ha, Postemergence) | Plant response rating, Sugarbeets ([11]; Rate 250 g/ha, Preemergence) | Plant response rating, Sugarbeets ([11]; Rate 500 g/ha, Preemergence)
7: Plant response rating, Redroot pigweed ([8]; Rate 250 g/ha, Postemergence) | Plant response rating, Redroot pigweed ([8]; Rate 250 g/ha, Preemergence) | Plant response rating, Redroot pigweed ([8]; Rate 500 g/ha, Postemergence) | Plant response rating, Soybean ([10]; Rate 250 g/ha, Postemergence) | Plant response rating, Soybean ([10]; Rate 500 g/ha, Postemergence) | Plant response rating, Velvetleaf ([12]; Rate 250 g/ha, Postemergence) | Plant response rating, Velvetleaf ([12]; Rate 500 g/ha, Postemergence)
1: Blackgrass plant response rating ([1]; Rate 62 g/ha, Postemergence) | Blackgrass plant response rating ([1]; Rate 125 g/ha, Postemergence) | Plant response rating, Blackgrass ([1]; Rate 250 g/ha, Postemergence) | Plant response rating, Blackgrass ([1]; Rate 250 g/ha, Preemergence) | B. signalgrass plant response rating ([2]; Rate 62 g/ha, Postemergence) | B. signalgrass plant response rating ([2]; Rate 125 g/ha, Postemergence) | Plant response rating, B. signalgrass ([2]; Rate 125 g/ha, Preemergence) | Plant response rating, Cocklebur ([3]; Rate 500 g/ha, Preemergence) | Corn plant response rating ([4]; Rate 62 g/ha, Postemergence) | Corn plant response rating ([4]; Rate 125 g/ha, Postemergence) | Plant response rating, Corn ([4]; Rate 250 g/ha, Postemergence) | Plant response rating, Corn ([4]; Rate 500 g/ha, Postemergence) | Crabgrass plant response rating ([5]; Rate 62 g/ha, Postemergence) | Plant response rating, Giant foxtail [6, 15] | Giant foxtail plant response rating ([6]; Rate 62 g/ha, Postemergence) | Giant foxtail plant response rating ([6]; Rate 125 g/ha, Postemergence) | Plant response rating, Giant foxtail ([6]; Rate 250 g/ha, Postemergence) | Plant response rating, Morningglory [7, 15] | Wheat plant response rating ([13]; Rate 62 g/ha, Postemergence) | Wheat plant response rating ([13]; Rate 125 g/ha, Postemergence) | Plant response rating, Wheat ([13]; Rate 250 g/ha, Postemergence) | Plant response rating, Wheat ([13]; Rate 500 g/ha, Preemergence) | Wild oats plant response rating ([14]; Rate 62 g/ha, Postemergence) | Wild oats plant response rating ([14]; Rate 125 g/ha, Postemergence) | Plant response rating, Wild oats ([14]; Rate 250 g/ha, Postemergence) | Plant response rating, Wild oats ([14]; Rate 250 g/ha, Preemergence) | Plant response rating, Wild oats ([14]; Rate 500 g/ha, Preemergence)
3: Morningglory plant response rating ([7]; Rate 125 g/ha, Postemergence) | Plant response rating, Morningglory ([7]; Rate 500 g/ha, Postemergence)
0: Plant response rating, Blackgrass [1, 15] | Plant response rating, Blackgrass ([1]; Rate 125 g/ha, Preemergence) | B. signalgrass plant response rating ([2]; Rate 62 g/ha, Preemergence) | Plant response rating, Cocklebur [3, 15] | Plant response rating, Cocklebur ([3]; Rate 125 g/ha, Preemergence) | Plant response rating, Cocklebur ([3]; Rate 250 g/ha, Preemergence) | Plant response rating, Corn [4, 15] | Plant response rating, Corn ([4]; Rate 125 g/ha, Preemergence) | Plant response rating, Corn ([4]; Rate 250 g/ha, Preemergence) | Plant response rating, Corn ([4]; Rate 500 g/ha, Preemergence) | Plant response rating, Redroot pigweed [8, 15] | Plant response rating, Nutsedge [9, 15] | Nutsedge plant response rating ([9]; Rate 62 g/ha, Postemergence) | Nutsedge plant response rating ([9]; Rate 125 g/ha, Postemergence) | Plant response rating, Nutsedge ([9]; Rate 125 g/ha, Preemergence) | Plant response rating, Nutsedge ([9]; Rate 250 g/ha, Postemergence) | Plant response rating, Nutsedge ([9]; Rate 250 g/ha, Preemergence) | Plant response rating, Nutsedge ([9]; Rate 500 g/ha, Preemergence) | Plant response rating, Soybean [10, 15] | Plant response rating, Soybean ([10]; Rate 125 g/ha, Preemergence) | Plant response rating, Soybean ([10]; Rate 250 g/ha, Preemergence) | Plant response rating, Soybean ([10]; Rate 500 g/ha, Preemergence) | Plant response rating, Velvetleaf [12, 15] | Plant response rating, Wheat [13, 15] | Plant response rating, Wheat ([13]; Rate 125 g/ha, Preemergence) | Plant response rating, Wheat ([13]; Rate 250 g/ha, Preemergence) | Plant response rating, Wild oats [14, 15] | Plant response rating, Wild oats ([14]; Rate 125 g/ha, Preemergence)
10: Sugarbeets plant response rating ([11]; Rate 125 g/ha, Postemergence) | Plant response rating, Sugarbeets ([11]; Rate 250 g/ha, Postemergence) | Plant response rating, Sugarbeets ([11]; Rate 500 g/ha, Postemergence)
6: Plant response rating, Blackgrass ([1]; Rate 500 g/ha, Postemergence) | Plant response rating, B. signalgrass ([2]; Rate 500 g/ha, Preemergence) | Plant response rating, Cocklebur ([3]; Rate 250 g/ha, Postemergence) | Plant response rating, Cocklebur ([3]; Rate 500 g/ha, Postemergence) | Plant response rating, Crabgrass ([5]; Rate 250 g/ha, Preemergence) | Plant response rating, Giant foxtail ([6]; Rate 250 g/ha, Preemergence) | Plant response rating, Giant foxtail ([6]; Rate 500 g/ha, Preemergence) | Redroot pigweed plant response rating ([8]; Rate 125 g/ha, Postemergence) | Velvetleaf plant response rating ([12]; Rate 62 g/ha, Postemergence) | Velvetleaf plant response rating ([12]; Rate 125 g/ha, Postemergence)
8: Plant response rating, Crabgrass ([5]; Rate 500 g/ha, Preemergence) | Plant response rating, Redroot pigweed ([8]; Rate 500 g/ha, Preemergence) | Plant response rating, Sugarbeets ([11]; Rate 125 g/ha, Preemergence) | Plant response rating, Velvetleaf ([12]; Rate 500 g/ha, Preemergence)
2: Plant response rating, Blackgrass ([1]; Rate 500 g/ha, Preemergence) | Plant response rating, B. signalgrass ([2]; Rate 250 g/ha, Postemergence) | Plant response rating, B. signalgrass ([2]; Rate 250 g/ha, Preemergence) | Plant response rating, B. signalgrass ([2]; Rate 500 g/ha, Postemergence) | Crabgrass plant response rating ([5]; Rate 125 g/ha, Postemergence) | Plant response rating, Giant foxtail ([6]; Rate 500 g/ha, Postemergence) | Plant response rating, Morningglory ([7]; Rate 125 g/ha, Preemergence) | Plant response rating, Morningglory ([7]; Rate 250 g/ha, Preemergence) | Redroot pigweed plant response rating ([8]; Rate 62 g/ha, Postemergence) | Plant response rating, Redroot pigweed ([8]; Rate 125 g/ha, Preemergence) | Plant response rating, Velvetleaf ([12]; Rate 125 g/ha, Preemergence) | Plant response rating, Wheat ([13]; Rate 500 g/ha, Postemergence) | Plant response rating, Wild oats ([14]; Rate 500 g/ha, Postemergence)
5: Cocklebur plant response rating ([3]; Rate 62 g/ha, Postemergence) | Cocklebur plant response rating ([3]; Rate 125 g/ha, Postemergence) | Plant response rating, Giant foxtail ([6]; Rate 125 g/ha, Preemergence) | Plant response rating, Morningglory ([7]; Rate 500 g/ha, Preemergence) | Soybean plant response rating ([10]; Rate 62 g/ha, Postemergence) | Soybean plant response rating ([10]; Rate 125 g/ha, Postemergence)

Reference: patent publication US6525001B1, “Substituted pyrimidine and pyridine herbicides” (Mid-American Commercialization Corporation, priority 1997, dated 2003)
